The assay concerns the target T1, CYP90D1 (Arabidopsis thaliana, UniProt Q94IA6).
T1 construct: CYP90D1 mature protein, expressed in E. coli from pCold-GST; fusion cleaved with HRV3C protease
T1 sequence (Q94IA6 1-491): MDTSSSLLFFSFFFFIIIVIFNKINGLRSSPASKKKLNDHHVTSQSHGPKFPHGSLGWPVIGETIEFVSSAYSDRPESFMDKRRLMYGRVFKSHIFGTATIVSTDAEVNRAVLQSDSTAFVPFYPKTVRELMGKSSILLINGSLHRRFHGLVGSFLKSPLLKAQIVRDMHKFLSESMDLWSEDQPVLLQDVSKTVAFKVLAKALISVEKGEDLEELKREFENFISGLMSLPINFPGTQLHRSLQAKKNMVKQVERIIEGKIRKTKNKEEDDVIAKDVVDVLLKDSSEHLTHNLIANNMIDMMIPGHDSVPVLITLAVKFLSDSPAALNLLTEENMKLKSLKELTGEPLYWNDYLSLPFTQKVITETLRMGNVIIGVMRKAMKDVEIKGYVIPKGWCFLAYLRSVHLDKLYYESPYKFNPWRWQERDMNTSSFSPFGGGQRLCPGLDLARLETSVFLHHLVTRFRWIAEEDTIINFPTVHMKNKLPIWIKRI
The assay can be described thus: optical difference spectroscopy (type II binding spectrum) titration of purified recombinant CYP90D1.

This is an account of results in PMC4368189, “YCZ-18 Is a New Brassinosteroid Biosynthesis Inhibitor” (PLoS ONE, 2015).

For `CCOc1ccccc1OCC1COC(Cn2cncn2)(c2ccc(Cl)cc2)O1` (stereo not shown) [YCZ-18], the Kd (commonly the free concentration of one partner at which half of the binding sites on the other are occupied at equilibrium, for simple one-to-one binding) is around 790 nM.
